Experimental data published in PMC11809180, “RA-PR058, a novel ramalin derivative, reduces BACE1 expression and phosphorylation of tau in Alzheimer’s disease mouse models” (Animal Cells and Systems, 2025).
Read-outs that look alike come from different tables or passages of the source.

Key:
[1] = Microsomal stability; format: in vitro ADME; settings: human, mouse, rat, dog, monkey, liver microsomes, 30 minutes 37 ℃, with and without NADPH, across all microsomes tested
Method: The metabolic stability of RA-PR058 was evaluated using liver microsomes from humans and various animal species at 37 ℃. This assay was carried out by SPMED Co., Ltd (Republic of Korea). The test was initiated by adding the 1 μM of RA-PR058 to liver microsomes in the presence or absence of an NADPH regenerating system. After incubation at 37 ℃ for 30 minutes, acetonitrile containing an internal standard was added to each sample to terminate the reaction. Samples were then centrifuged, and the supernatant was analyzed by LC-MS.

[2] = test system: BACE1; test: BACE1 expression in brain of 3xTg-AD mice (western blot); format: in vivo, mouse; settings: 20 mg/kg oral daily 4 weeks
Method: (§1) 3xTg-AD (B6;129-Tg(APPSwe,tauP301L)1Lfa Psen1^tm1Mpm/Mmjax) mice and their littermate wild-type (WT) mice were used in this study. Each experimental group consisted of 4–8 mice, with groups designated as WT, 3xTg-AD Vehicle, and 3xTg-AD RA-PR058. All mice were maintained in a 12-hour light/dark cycle with free access to food and water. 7-month-old age of mice were administered with 20 mg/kg of RA-PR058 orally once a day for 1 month followed by the elevated plus maze test. All animal experimental procedures were approved by the Institutional Animal Care and Use Committee of Sungkyunkwan University (SKKUIACUC2022-10-41-1).
After EPM was conducted, mice were sacrificed, and brain tissues were collected as previously described (Park et al. [2021]). Mice were anesthetized by injecting Zoletil (Virbac) and Rompun (Bayer) intraperitoneally. After mice were anesthetized, they were perfused with phosphate-buffered saline (PBS). Then, brains were extracted and cut into two hemispheres; one hemisphere was preserved in 4% paraformaldehyde and the other was dissected into the cortex and hippocampus. […]
Samples for western blot analysis were prepared as previously described (Gwon et al. [2012]). […] Protein concentrations were measured using Pierce™ BCA Protein Assay Kits (Thermo Fisher Scientific). […] Protein bands were quantified using ImageJ (NIH).

[3] = test system: 3xTg-AD mice; test: Elevated plus maze test in 3xTg-AD mice; format: in vivo, mouse; settings: 20 mg/kg oral daily for 1 month, vs vehicle-treated 3xTg-AD
Method: as §1
The elevated plus maze (EPM) test is a widely used behavioral assay to assess anxiety-like behavior in mice (Walf and Frye [2007]). After administering RA-PR058 for 1 month, EPM was performed to evaluate its effects. Briefly, the mouse was placed in the center of the maze, facing an open arm, and allowed to explore freely for 5 minutes. Behavioral patterns were recorded and analyzed by EthoVision software (Noldus). Data were used to assess the effects of RA-PR058 on anxiety-like behavior compared to control mice.

[4] = Plasma and brain pharmacokinetics after oral administration; format: in vivo; settings: Sprague-Dawley, rat, 10 mg/kg oral, S.D. rats; for AUC(0-t): read-out: AUC0-7h
Method: Pharmacokinetic assays were conducted by NeuroVis (Republic of Korea). 10 mg/kg of RA-PR058 was administered to Sprague–Dawley rats by either oral administration route or intravenous injection route. Blood sampling was conducted using the BASi Culex ABS system. After cannulation, catheters were inserted into the jugular vein and the carotid artery of the rats, with the system programmed to collect 200 μL samples. Collected blood samples were centrifuged at 12,000 x rpm for 10 minutes to separate plasma, which was then immediately stored at −80 ℃. For brain pharmacokinetics, 10 mg/kg of RA-PR058 was administered orally to Sprague–Dawley rats, followed by collection of both blood and brain tissue. After collection, samples were mixed with the internal standard, ofloxacin, and centrifuged at 13,000 x rpm for 5 minutes at 4 ℃. The resulting supernatants were then combined with 50% methanol and analyzed by LC-MS/MS.

[5] = test system: tau; test: Tau phosphorylation in brain of 3xTg-AD mice (western blot, DAB staining); format: in vivo, mouse; settings: 20 mg/kg oral daily 4 weeks
Method: as §1
After EPM was conducted, mice were sacrificed, and brain tissues were collected as previously described (Park et al. [2021]). Mice were anesthetized by injecting Zoletil (Virbac) and Rompun (Bayer) intraperitoneally. After mice were anesthetized, they were perfused with phosphate-buffered saline (PBS). Then, brains were extracted and cut into two hemispheres; one hemisphere was preserved in 4% paraformaldehyde and the other was dissected into the cortex and hippocampus. Dissected tissues were then snap-frozen in liquid nitrogen and stored at −80 ℃ until further biochemical analysis.
Samples for western blot analysis were prepared as previously described (Gwon et al. [2012]). Cells were lysed with T-PER™ Tissue Protein Extraction Reagent (Thermo Fisher Scientific) supplemented with protease/phosphatase inhibitor cocktail (Thermo Fisher Scientific) and incubated at 4 ℃ for 10 minutes. After incubation, lysed samples were centrifuged at 13,000 x rpm for 10 minutes at 4 ℃ and the supernatant were used for western blot analysis. The cortices and hippocampi tissues were homogenized using RIPA lysis buffer (Millipore) supplemented with protease/phosphatase inhibitor cocktail and incubated at 4 ℃ for 30 minutes. Following incubation, lysed tissues were centrifuged at 13,000 x rpm for 30 minutes at 4 ℃ and the supernatant were used for western blot analysis. Protein concentrations were measured using Pierce™ BCA Protein Assay Kits (Thermo Fisher Scientific). Equal amounts of proteins were mixed with NuPAGE™ LDS Sample Buffer (Invitrogen) and 5% 2-mercaptoethanol (Sigma) and then boiled at 95 ℃ for 5 minutes. 4–12 μg of proteins were loaded onto SDS-polyacrylamide gels and electrophoresed (SDS-PAGE) until the protein bands were fully separated. After SDS-PAGE, the protein bands were transferred onto polyvinylidene fluoride (PVDF) membranes (Millipore). Following transfer, PVDF membranes were blocked with 5% non-fat skim milk in tris-buffered saline with Tween20 (Junsei) (TBS-T) for 1 hour at room temperature. Then, PVDF membranes were incubated overnight at 4 ℃ with primary antibodies against APP (6E10, BioLegend, 803001, 1:1,000), AT8 (Invitrogen, MN1020, 1:1,000), AT180 (Invitrogen, MN1040, 1:1,000), BACE1 (Cell Signaling Technology, 5606, 1:1,000), β-Actin (Sigma, A5441, 1:10,000), p-JNK (Cell Signaling Technology, 4671, 1:1,000), JNK (Cell Signaling Technology, 9252, 1:1,000), p-Tau^S396 (Invitrogen, 44-752G, 1:1,000), Tau13 (BioLegend, 835201, 1:1,000). Following incubation, membranes were washed with TBS-T and incubated with horseradish peroxidase-conjugated anti-mouse secondary antibody (Sigma, AP124P, 1:5,000) or anti-rabbit secondary antibody (Invitrogen, 31460, 1:5,000) for 1 hour at room temperature. […] Protein bands were quantified using ImageJ (NIH). […]

Cl.N[C@@H](CCC(=O)NNc1ccccc1F)C(F)F [RA-PR058, (S)-4-amino-5,5-difluoro-N'-(2-fluorophenyl)pentanehydrazide hydrochloride]
remaining at 0.5 h, 1 μM [1]: > 90%
Cortical BACE1 expression ([2]; cortex, normalized with β-Actin): significantly reduced
BACE1 expression in the hippocampus ([2]; hippocampus): did not affect
Time spent in open arms of the EPM [3]: significantly more time
Kp ([4]; brain and plasma, read-out: Brain-to-plasma AUC ratio (AUC0–7h)): 0.916
Cmax ([4]; Brain): 3190 ng/mL
half-life ([4]; Brain): 1.57 h
AUC(0-t) ([4]; Brain): 6090 ng·h/mL
Cmax ([4]; Plasma): 3900 ng/mL
half-life ([4]; Plasma): 1.06 h
AUC(0-t) ([4]; Plasma): 5700 ng·h/mL
Tau phosphorylation at Ser202/Thr205 (AT8) ([5]; cortex, normalized with Tau13): significantly reduced
Tau phosphorylation at Ser396 ([5]; cortex, normalized with Tau13): significantly reduced
Tau phosphorylation at Thr231 (AT180) ([5]; cortex, normalized with Tau13): significantly reduced
AT8 expression in the hippocampus ([5]; hippocampus): significantly reduced
Other phosphorylated tau species in the hippocampus ([5]; hippocampus, AT180, p-Tau S396): did not affect
